Reference: publication PMC5015959, “The Binding of Plasmodium falciparum Adhesins and Erythrocyte Invasion Proteins to Aldolase Is Enhanced by Phosphorylation” (PLoS ONE, 2016)
Where a SMILES comes first, the peptide text is derived from it. Where no end group is shown, it is not given here. [ ]: non-standard residue; d: D form. The star is where a group is joined. Biotin = O=C1N[C@H]2[C@H](CS[C@H]2CCCCC(=O)*)N1; pS = N[C@@H](COP(=O)(O)O)C(=O)O

Columns and labels:
[1] = test system: CK2; experiment: In vitro phosphorylation of CTDs by CK2; assay type: biochemical; settings: 10 μM kinase, 100 μM substrate, 1 mM ATP, 30°C, 3 hours; ES-MS and CID
Method: The phosphorylation of MTRAP and TRAP CTDs expressed as fusion proteins with GST was evaluated in vitro by ^32P incorporation (Fig 1A) and by electrospray (ES) mass spectrometry and collision-induced dissociation (CID) fragmentation analysis. […] MTRAP CTD produced as either a recombinant protein or as a synthetic peptide was also phosphorylated by PKA at the same two positions (S2A Fig). […] Using ES-MS and CID it was determined that both CDPK1 and PKA phosphorylated AMA1 at Ser610 (S1B and S2B Figs), the residue implicated in earlier studies. […] CDPK1 but not PKA phosphorylated EBA140 (Table 2, S2E Fig), the exact sites of which were not determined (S1E Fig). […]
(§1) Phosphorylation assays were performed using 10 μM recombinant CDPK1 [37], PKA (Promega), or CK2 (New England Biolabs) in kinase buffer (20 mM Tris-HCl pH 8.0, 20 mM MgCl2, with or without 1 mM CaCl2) and 1 mM ATP at 30°C for 3 hours with 100 μM substrate protein. Products were analysed by mass spectrometry and used in binding assays (see below). […]
Non-phosphorylated, phosphorylated and biotinylated polypeptides were analysed by electrospray (ES)-mass spectrometry and collision-induced dissociation (CID) fragmentation pathway analysis. […] Phosphorylation sites were determined using stand-alone nanospray on an LTQ Orbitrap Velos (Thermo Fisher Scientific). […]

[2] = target: T1, P. falciparum aldolase (Plasmodium falciparum, UniProt Q7KQL9); experiment: biochemical; assay type: binding; settings: for increase in affinity for aldolase following phosphorylation: phosphorylated versus unmodified CTD, from Kd values of Table 3; for binding to aldolase (in words): biolayer interferometry, Octet Red
T1 construct: made in house
Description: CTDs of four classes of type 1 membrane protein (AMA1 and the TRAP, EBL and RH families) that are potential adhesins or host cell invasion proteins derived from apical organelles, and present in the merozoite plasma membrane during invasion, were examined for their ability to bind to aldolase using bio-layer interferometry. Streptavidin-coated biosensors were loaded with biotinylated synthetic peptides or recombinant proteins representing either the full length CTDs or shorter C-terminal sequences (Table 1) and titrated with increasing aldolase concentrations. This analysis enabled the calculation of a dissociation constant (Kd) for each pair of proteins as a measure of the strength of interaction between them.
The effect of the CTD phosphorylation on aldolase binding was investigated using biolayer interferometry using phosphorylated synthetic peptides or peptides phosphorylated in vitro (Table 3).
Protein interactions were analysed by biolayer interferometry using the Octet Red system (ForteBio) at 25°C in 96-well microplates, as described previously. All assays were performed in 100 mM Tris-HCl pH 8.0, according to the manufacturer’s instructions. A baseline was established over 1 min, and biotinylated samples were loaded onto streptavidin sensors for 1 min. The sensors were washed for 1 min and then incubated with aldolase at different concentrations (0.05–250 μM) for 1 min, followed by a dissociation phase over 5 min. The experiments were performed in duplicate or triplicate depending on the experiment. The data were analysed as described previously.

[3] = target: RH1 full length CTD (2921–2971) (P. falciparum); experiment: BLI
[4] = target: RH1 CTD phosphorylated at S2950 or T2951 (P. falciparum); experiment: BLI
[5] = test system: CDPK1; experiment: In vitro phosphorylation of CTDs by CDPK1; assay type: biochemical; design: key: Phosphorylation (+) was confirmed by electrospray-mass spectrometry; settings: 10 μM kinase, 100 μM substrate, 1 mM ATP, 30°C, 3 hours; electrospray-mass spectrometry
Method: To examine whether or not phosphorylation affected the ability of the CTDs to bind aldolase, we first looked at their ability to be phosphorylated by serine/threonine kinases in vitro. Two kinases, CDPK1 and PKA, which have been implicated in phosphorylation of glideosome proteins, were chosen for this analysis (Table 2).
The phosphorylation of MTRAP and TRAP CTDs expressed as fusion proteins with GST was evaluated in vitro by ^32P incorporation (Fig 1A) and by electrospray (ES) mass spectrometry and collision-induced dissociation (CID) fragmentation analysis. […] Using ES-MS and CID it was determined that both CDPK1 and PKA phosphorylated AMA1 at Ser610 (S1B and S2B Figs), the residue implicated in earlier studies. […] CDPK1 but not PKA phosphorylated EBA140 (Table 2, S2E Fig), the exact sites of which were not determined (S1E Fig). […]
as §1
Non-phosphorylated, phosphorylated and biotinylated polypeptides were analysed by electrospray (ES)-mass spectrometry and collision-induced dissociation (CID) fragmentation pathway analysis. […]

[6] = target: T2, P. falciparum aldolase (P. falciparum, UniProt Q7KQL9 1-369); experiment: BLI; competition: biotinylated AMA1 or RH4 CTD on streptavidin sensor, fixed aldolase (70 μM for AMA1, 20 μM for RH4) with increasing unlabelled MTRAP CTD peptide; Octet Red; duplicate; settings: both partners purified
T2 construct: also called fructose 1,6-bisphosphate aldolase; parasite aldolase; source: prepared as described previously [42]
T2 sequence (looked up): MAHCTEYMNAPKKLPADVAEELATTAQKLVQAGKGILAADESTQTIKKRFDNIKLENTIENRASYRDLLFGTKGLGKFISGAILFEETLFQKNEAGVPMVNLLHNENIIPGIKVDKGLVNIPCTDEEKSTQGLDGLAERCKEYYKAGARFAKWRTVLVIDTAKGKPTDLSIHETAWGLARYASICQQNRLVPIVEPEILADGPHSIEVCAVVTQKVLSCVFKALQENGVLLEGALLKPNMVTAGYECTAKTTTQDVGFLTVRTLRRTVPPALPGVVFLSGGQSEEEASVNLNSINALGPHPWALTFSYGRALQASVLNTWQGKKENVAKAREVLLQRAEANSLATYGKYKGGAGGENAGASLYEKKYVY

[7] = target: T2, P. falciparum aldolase; experiment: BLI; settings: both partners purified
[8] = same assay as the Kd column, symbol * = no binding

Molecule: Biotin-KNSNEPHHIFNIFQKEFSEADNAHSEEKEEYLPVYFDEVEDEVEDEVEDEDENENEVENENEDFNDI [RH4, cytoplasmic domain of RH4, residues 1650–1716]
- phosphorylation by CK2 in vitro [1]: one phosphate group
- increase in affinity for aldolase following phosphorylation [2]: no increase in affinity

Molecule: CC[C@H](C)[C@H](NC(=O)[C@H](Cc1c[nH]cn1)NC(=O)[C@H](Cc1ccc(O)cc1)NC(=O)CCCC[C@@H]1SC[C@@H]2NC(=O)N[C@@H]21)C(=O)N[C@@H](Cc1ccccc1)C(=O)N[C@@H](Cc1ccc(O)cc1)C(=O)N[C@@H](CCCCN)C(=O)N[C@@H](CCCNC(=N)N)C(=O)N[C@@H](CCCCN)C(=O)NCC(=O)N[C@@H](C)C(=O)N[C@@H](CCC(=O)O)C(=O)N[C@@H](CCCCN)C(=O)N[C@@H](CCC(=O)O)C(=O)N[C@@H](CC(C)C)C(=O)N[C@@H](Cc1ccc(O)cc1)C(=O)N[C@@H](CCC(=O)O)C(=O)N[C@@H](CC(N)=O)C(=O)N[C@H](C(=O)N[C@@H](C)C(=O)NCC(=O)N[C@@H](CCCNC(=N)N)C(=O)N[C@@H](Cc1ccc(O)cc1)C(=O)N[C@@H](CCSC)C(=O)N[C@@H](Cc1ccc(O)cc1)C(=O)N[C@@H](CC(=O)O)C(=O)O)C(C)C [PTRAMP, reference compound] (Biotin-YHIFYKRKGAEKELYENVAGRYMYD-OH; C-terminus assumed)
- binding to aldolase (in words) [2]: does not bind

Molecule: P. falciparum aldolase (from UniProt Q7KQL9 1-369) (enzyme)
- Kd [3]: 6.1 µM
- Kd [4]: 2.5 µM

Molecule: Biotin-KTNSGDNNSNEINEAFEPNDDVLFKEKDEIIEITFNDNDSTI [RH2A]
- binding to aldolase (in words) [2]: did not bind at all
- Kd [2, 8]: > 250 µM

Molecule: Biotin-KNNKQEYDKEQEKQQQNDFVCDNNKMDDKSTQKYGRNQEEVMEIFFDNDYI [RH1 2921–2971]
- CTD peptide phosphorylation by CDPK1 in vitro [5]: +
- Kd ([2]; biolayer interferometry (Octet Red), biotinylated CTD on streptavidin sensor, aldolase 0.05–250 μM, 100 mM Tris-HCl pH 8.0, 25°C, mean of duplicate reactions): 6.1 µM
- increase in affinity for aldolase following phosphorylation [2]: around 2 fold

Molecule: Biotin-DRSNKDECDFDMCEEVNNNDHLSNYADKEEIIEIVFDENEEKYF (cysteines drawn unpaired) [RH2B]
- increase in affinity for aldolase following phosphorylation [2]: 11 fold

Molecule: CSCC[C@H](NC(=O)[C@H](CC(C)C)NC(=O)[C@@H](NC(=O)CCCC[C@@H]1SC[C@@H]2NC(=O)N[C@@H]21)C(C)C)C(=O)N[C@@H](CCC(=O)O)C(=O)N[C@@H](CCCCN)C(=O)N1CCC[C@H]1C(=O)N[C@@H](Cc1ccc(O)cc1)C(=O)N[C@@H](Cc1ccc(O)cc1)C(=O)O [AMA1 555–562] (Biotin-VLMEKPYY-OH; C-terminus assumed)
- binding to aldolase (in words) [2]: did not bind
- Kd [2, 8]: > 250 µM

Molecule: YFLRKEKTEKVVQEETKEENFEVMFNDDALKGKDNKAMDEEEFWALE [unlabelled competitor MTRAP CTD peptide]
- percent reduction of aldolase binding to RH4 CTD at a 5-fold molar excess of MTRAP to aldolase [6]: 56%

B1: EBA181 CTD phosphorylated at S1523 and S1528 (peptide)
peptide: Biotin-RKNLDDEKGFYD[pS]NLND[pS]AFEYNNNKYNKLPYMFDQQINVVNSDLYSEGIYDDTTTF
notes: source: phosphorylated synthetic peptide (Biomatik) or peptide phosphorylated in vitro
- Kd [7]: 4.7 µM
